Reference: ChEMBL document CHEMBL1201862, “PubChem BioAssay data set” (2004)
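Method: 48-hour compound exposure of cells in 96-well plates, five concentrations, linear interpolation of endpoints. GI50 marks 50% less growth.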 Calls of active or inactive are those of the source. Cut-off read from the data, not from the text of the source: active = GI50 up to about 1.1 µM and inactive = higher.

What was measured:
Assay in all cases: inhibition of tumour cell growth, NCI panel, 48 h
[1] = test system: UACC-62
[2] = test system: EKVX
[3] = test system: KM12
[4] = test system: NCI-H522
[5] = test system: M14
[6] = test system: NCI-H23
[7] = test system: UO-31
[8] = test system: SNB-75
[9] = test system: SF-539
[10] = test system: HCT-116
[11] = test system: SNB-19
[12] = test system: HCC 2998
[13] = test system: HOP-62
[14] = test system: 786-0
[15] = test system: MOLT-4
[16] = test system: CAKI-1
[17] = test system: SK-MEL-5
[18] = test system: HOP-92

| Compound | GI50 [1] | GI50 [2] | GI50 [3] | GI50 [4] | GI50 [5] | GI50 [6] | GI50 [7] | GI50 [8] | GI50 [9] | GI50 [10] | GI50 [11] | GI50 [12] | GI50 [13] | GI50 [14] | GI50 [15] | GI50 [16] | GI50 [17] | GI50 [18] |
| --- | --- | --- | --- | --- | --- | --- | --- | --- | --- | --- | --- | --- | --- | --- | --- | --- | --- | --- |
| Cc1cc2nc3c(C(OC4OC(CO)C(O)C(O)C4O)C(O)CO)nn(-c4ccccc4)c3nc2cc1C (stereo not given) | > 100 µM (inactive) | > 100 µM (inactive) | > 100 µM (inactive) | > 100 µM (inactive) | > 100 µM (inactive) | > 100 µM (inactive) | > 100 µM (inactive) | 64 µM (inactive) | > 100 µM (inactive) | > 100 µM (inactive) | > 100 µM (inactive) | > 100 µM (inactive) | > 100 µM (inactive) | > 100 µM (inactive) | > 100 µM (inactive) |  |  |  |
| CCC(C)(C)NS(=O)(=O)c1ccccc1 | > 100 µM (inactive) | > 100 µM (inactive) | > 100 µM (inactive) |  | > 100 µM (inactive) | > 100 µM (inactive) | > 100 µM (inactive) | > 100 µM (inactive) | > 100 µM (inactive) | > 100 µM (inactive) |  | > 100 µM (inactive) | > 100 µM (inactive) | > 100 µM (inactive) | > 100 µM (inactive) | > 100 µM (inactive) | > 100 µM (inactive) |  |
| N#C/N=C(\NCCc1c[nH]c2ccccc12)NCc1ccccc1 | 53.6 µM (inactive) | 45.6 µM (inactive) | 36.4 µM (inactive) |  | 51.1 µM (inactive) | > 100 µM (inactive) | 20.5 µM (inactive) | 43.8 µM (inactive) | > 100 µM (inactive) | 50.9 µM (inactive) | 68.9 µM (inactive) | 32.5 µM (inactive) | > 100 µM (inactive) | 25.5 µM (inactive) | 34.9 µM (inactive) |  | 24.4 µM (inactive) |  |
| COc1ccc(NC(=O)C(=O)C2NC(=S)NC2=O)c(OC)c1 (stereo not given) | > 100 µM (inactive) | > 100 µM (inactive) | > 100 µM (inactive) |  | > 100 µM (inactive) | > 100 µM (inactive) | > 100 µM (inactive) | > 100 µM (inactive) | > 100 µM (inactive) | > 100 µM (inactive) | > 100 µM (inactive) | > 100 µM (inactive) | > 100 µM (inactive) | > 100 µM (inactive) | > 100 µM (inactive) |  |  | > 100 µM (inactive) |
| CC(C)CCC[C@@H](C)C1CCC2[C@@H]3CC=C4C[C@@H](C(=O)NCCN(C)C)CC[C@]4(C)C3CC[C@@]21C (stereo not given in full) | 42.4 µM (inactive) | 47.5 µM (inactive) | 14.9 µM (inactive) | 41 µM (inactive) | 16.3 µM (inactive) | 18.3 µM (inactive) | 23.1 µM (inactive) | 20.4 µM (inactive) | 17.1 µM (inactive) |  | 28.6 µM (inactive) | 23.5 µM (inactive) | 18.9 µM (inactive) | 17.3 µM (inactive) | 31.1 µM (inactive) | 22.3 µM (inactive) | > 10 µM (inactive) | 5.89 µM (inactive) |
| CSC1(C)CC2C(CC1N1CCOCC1)C2(C)C (stereo not given) |  |  | > 100 µM (inactive) |  | > 100 µM (inactive) | > 100 µM (inactive) | > 100 µM (inactive) | > 100 µM (inactive) | > 100 µM (inactive) | > 100 µM (inactive) |  | > 100 µM (inactive) |  | > 100 µM (inactive) | > 100 µM (inactive) |  | > 100 µM (inactive) | 78.2 µM (inactive) |
| CCOc1ccc(/C=C(\Cl)c2ccc(OC)cc2)cc1 | > 100 µM (inactive) | > 100 µM (inactive) |  | > 100 µM (inactive) | > 100 µM (inactive) | > 100 µM (inactive) | > 100 µM (inactive) | > 100 µM (inactive) | > 100 µM (inactive) | > 100 µM (inactive) | > 100 µM (inactive) | > 100 µM (inactive) | > 100 µM (inactive) | > 100 µM (inactive) | > 100 µM (inactive) |  | > 100 µM (inactive) | > 100 µM (inactive) |
| CC(=O)OC1CC2C(C)(C)C(=O)C=C[C@]2(C)C2CCC3(C)C(c4ccoc4)C(=O)[C@H]4O[C@]43[C@]12C (stereo not given in full) | 18 µM (inactive) | 31.3 µM (inactive) |  | 16.4 µM (inactive) | 26.7 µM (inactive) | 21.5 µM (inactive) | 18.7 µM (inactive) | 29.8 µM (inactive) | 20 µM (inactive) | 15.4 µM (inactive) | 23.3 µM (inactive) | 17.1 µM (inactive) | 22.6 µM (inactive) | 18.1 µM (inactive) | 16 µM (inactive) | 20.3 µM (inactive) | 17.7 µM (inactive) | 12.6 µM (inactive) |
| CN(C)C(=S)/N=c1\ss/c(=N/c2ccccc2)n1C | > 100 µM (inactive) | > 100 µM (inactive) | > 100 µM (inactive) |  | > 100 µM (inactive) | > 100 µM (inactive) | > 100 µM (inactive) | 16.2 µM (inactive) | 22.7 µM (inactive) | 38.5 µM (inactive) | 58.3 µM (inactive) | > 100 µM (inactive) | 48.1 µM (inactive) | 22.6 µM (inactive) | > 100 µM (inactive) | 36.2 µM (inactive) |  | 30.5 µM (inactive) |
| Clc1cc(Cc2cc(Cl)c(Cl)c3c2OCOC3)c2c(c1Cl)COCO2 | 49.1 µM (inactive) |  | > 100 µM (inactive) | 41.9 µM (inactive) | 38.4 µM (inactive) | > 100 µM (inactive) | 34.6 µM (inactive) | 27.5 µM (inactive) | 17.8 µM (inactive) | 36.4 µM (inactive) | 38 µM (inactive) | > 100 µM (inactive) | 25.8 µM (inactive) | 25.1 µM (inactive) | 56.2 µM (inactive) | 22.3 µM (inactive) | 43.2 µM (inactive) | 16.9 µM (inactive) |
| CC(=O)Oc1cc(C)c2c(c1OC(C)=O)CC1(O2)[C@@H](C)CCC2[C@@]3(C)CC[C@H](OC(C)=O)C(C)(C)C3CC[C@]21C (stereo not given in full) | 2.46 µM (inactive) | 3.69 µM (inactive) | 5.13 µM (inactive) |  | 6.08 µM (inactive) | 2.19 µM (inactive) | 1.99 µM (inactive) | 3.57 µM (inactive) | 2.81 µM (inactive) | 4.19 µM (inactive) | 7.31 µM (inactive) | 5.42 µM (inactive) | 2.65 µM (inactive) | 2.28 µM (inactive) | 4.57 µM (inactive) | 2.2 µM (inactive) | 3.1 µM (inactive) | 3.14 µM (inactive) |
| O=c1c(O)cccn1C1OC(CO)C(O)C1O (stereo not given) | > 100 µM (inactive) | > 100 µM (inactive) | > 100 µM (inactive) | > 100 µM (inactive) | > 100 µM (inactive) | > 100 µM (inactive) | > 100 µM (inactive) | > 100 µM (inactive) |  | > 100 µM (inactive) | > 100 µM (inactive) | > 100 µM (inactive) |  | > 100 µM (inactive) |  | > 100 µM (inactive) |  | > 100 µM (inactive) |
| O=C(CSc1nnc(Cc2ccccc2)o1)Nc1ccccc1Cl | > 100 µM (inactive) |  | > 100 µM (inactive) | > 100 µM (inactive) | > 100 µM (inactive) | > 100 µM (inactive) | > 100 µM (inactive) |  | > 100 µM (inactive) | > 100 µM (inactive) | > 100 µM (inactive) | > 100 µM (inactive) | > 100 µM (inactive) | > 100 µM (inactive) | > 100 µM (inactive) | > 100 µM (inactive) | > 100 µM (inactive) |  |
| C[C@]12CCCC(=O)C1C[C@H](C(=O)O)CC2 (stereo not given in full) | > 100 µM (inactive) |  | > 100 µM (inactive) | > 100 µM (inactive) | > 100 µM (inactive) | > 100 µM (inactive) | > 100 µM (inactive) | > 100 µM (inactive) | > 100 µM (inactive) | > 100 µM (inactive) | > 100 µM (inactive) | > 100 µM (inactive) | > 100 µM (inactive) | > 100 µM (inactive) | > 100 µM (inactive) | > 100 µM (inactive) |  | > 100 µM (inactive) |
| Cc1cc(O)c2c(c1)OC1(C)CCC3C(C)(C)CCCC34COC2C14 (stereo not given) | 19.2 µM (inactive) | 11.9 µM (inactive) | 16.8 µM (inactive) | 17.6 µM (inactive) | 14.4 µM (inactive) | 17.6 µM (inactive) | 16.7 µM (inactive) |  | 6.43 µM (inactive) | 14.3 µM (inactive) | 18.3 µM (inactive) | 14.7 µM (inactive) | 14.1 µM (inactive) | 14.4 µM (inactive) | 0.141 µM (active) | 18.3 µM (inactive) | 14.4 µM (inactive) |  |
| CC1=C(C)C(=O)C2=C(OCCCO2)C1=O | 18.1 µM (inactive) | 17.2 µM (inactive) | > 10 µM (inactive) | 18 µM (inactive) | 17 µM (inactive) | > 10 µM (inactive) | 16.5 µM (inactive) | 23.8 µM (inactive) | > 10 µM (inactive) | > 10 µM (inactive) | > 100 µM (inactive) | 59.4 µM (inactive) | > 100 µM (inactive) | 19.2 µM (inactive) | 2.4 µM (inactive) |  |  |  |
| COc1ccc(-c2cc(-c3cc(C)ccc3O)nc(O)n2)cc1 | > 100 µM (inactive) | 7.11 µM (inactive) | > 100 µM (inactive) | 24.6 µM (inactive) | > 100 µM (inactive) | > 100 µM (inactive) | 76.6 µM (inactive) | 26.2 µM (inactive) | 30.1 µM (inactive) | 77.1 µM (inactive) | 47 µM (inactive) | > 100 µM (inactive) | 22.6 µM (inactive) | 62.5 µM (inactive) | > 100 µM (inactive) | > 100 µM (inactive) |  | 32.6 µM (inactive) |
